The target in the first experiment is T1, human MGL from HeLa cells (Homo sapiens, UniProt Q99685).
T1 construct: combining endogenously expressed MGL from HeLa cells with test compounds; endogenous in cells; host or cells: HeLa cells / cell homogenates
T1 sequence (Q99685 1-303): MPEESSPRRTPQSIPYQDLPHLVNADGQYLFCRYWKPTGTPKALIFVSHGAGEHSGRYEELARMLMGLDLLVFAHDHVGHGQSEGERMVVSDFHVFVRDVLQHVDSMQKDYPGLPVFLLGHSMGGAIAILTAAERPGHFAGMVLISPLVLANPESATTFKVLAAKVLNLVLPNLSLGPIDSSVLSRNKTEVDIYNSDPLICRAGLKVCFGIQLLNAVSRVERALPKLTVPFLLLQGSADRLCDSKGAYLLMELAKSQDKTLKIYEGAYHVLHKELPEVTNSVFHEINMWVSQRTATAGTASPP
As to the kind of experiment: In vitro MGL activity assay: [glycerol-1,3-3H]-oleyl glycerol cleavage by MGL from HeLa cells. It counts as biochemical. Particulars: 300 nM [Glycerol-1,3-3H]-oleyl glycerol, one hour. The text has this: MGL is the predominant hydrolase in HeLa cells/cell homogenates.
Broadly, the IC50 is the concentration at which inhibition is half-maximal. Higher therefore signals weaker potency in that assay. On to `C[C@H]1c2nn(C)c(-c3cc(F)c(F)c(F)c3)c2CCN1C(=O)c1n[nH]c2ccncc12` [Example 435, [(7S)-2,7-Dimethyl-3-(3,4,5-trifluorophenyl)-5,7-dihydro-4H-pyrazolo[3,4-c]pyridin-6-yl]-(1H-pyrazolo[4,3-c]pyridin-3-yl)methanone], for which the IC50 is 40.2 nM.

As to `Cc1cnn2ncc(C(=O)N3CCc4c(nn(C)c4-c4cc(F)c(F)c(F)c4)[C@@H]3C)c2c1` [Example 443, [(7S)-2,7-Dimethyl-3-(3,4,5-trifluorophenyl)-5,7-dihydro-4H-pyrazolo[3,4-c]pyridin-6-yl]-(5-methylpyrazolo[1,5-b]pyridazin-3-yl) methanone], the IC50 was found to be 12.4 nM.

`C[C@H]1c2nn(C)c(-c3cc(F)c(F)c(F)c3)c2CCN1C(=O)c1nccc2cn[nH]c12` [Example 432, [(7S)-2,7-Dimethyl-3-(3,4,5-trifluorophenyl)-5,7-dihydro-4H-pyrazolo[3,4-c]pyridin-6-yl]-(1H-pyrazolo[3,4-c]pyridin-7-yl)methanone] had an IC50 of 274 nM.

Regarding `C[C@H]1c2nn(C)c(-c3cc(F)c(F)c(F)c3)c2CCN1C(=O)c1cccc2c1COCC2` [Example 579, [(7S)-2,7-Dimethyl-3-(3,4,5-trifluorophenyl)-5,7-dihydro-4H-pyrazolo[3,4-c]pyridin-6-yl]-isochroman-8-yl-methanone], the IC50 came to 8.18 nM.

As to `C[C@H]1c2nn(C)c(-c3cc(F)c(F)c(F)c3)c2CCN1C(=O)c1cccc2[nH]nnc12` [Example 367, 1H-Benzotriazol-4-yl-[(7S)-2,7-dimethyl-3-(3,4,5-trifluorophenyl)-5,7-dihydro-4H-pyrazolo[3,4-c]pyridin-6-yl]methanone], the IC50 came to 658 nM.

In turn, `C[C@H]1c2nn(C)c(-c3cc(F)c(F)c(F)c3)c2CCN1C(=O)c1ccnc2c1CCOC2` [Example 565, 6,8-Dihydro-5H-pyrano[3,4-b]pyridin-4-yl-[(7S)-2,7-dimethyl-3-(3,4,5-trifluorophenyl)-5,7-dihydro-4H-pyrazolo[3,4-c]pyridin-6-yl]methanone] had an IC50 of 108 nM.

In turn, `Cc1c(C(=O)N2CCc3c(nn(C)c3-c3cc(F)c(F)c(F)c3)[C@@H]2C)nn2c1COC(C)(C)C2` [Example 557, [(7S)-2,7-Dimethyl-3-(3,4,5-trifluorophenyl)-5,7-dihydro-4H-pyrazolo[3,4-c]pyridin-6-yl]-(3,6,6-trimethyl-4,7-dihydropyrazolo[5,1-c][1,4]oxazin-2-yl)methanone] showed a half-inhibitory concentration (IC50) of 1840 nM.

Molecule `C[C@H]1c2nn(C)c(-c3cc(F)c(F)c(F)c3)c2CCN1C(=O)c1c[nH]c2cc(F)ccc12` [Example 358, [(7S)-2,7-Dimethyl-3-(3,4,5-trifluorophenyl)-5,7-dihydro-4H-pyrazolo[3,4-c]pyridin-6-yl]-(6-fluoro-1H-indol-3-yl)methanone] displayed an IC50 of 37.6 nM.

Consider `C[C@H]1c2nn(C)c(-c3cc(F)c(F)c(F)c3)c2CCN1C(=O)c1c[nH]c2cccc(F)c12` [Example 357, [(7S)-2,7-Dimethyl-3-(3,4,5-trifluorophenyl)-5,7-dihydro-4H-pyrazolo[3,4-c]pyridin-6-yl]-(4-fluoro-1H-indol-3-yl)methanone], for which the midpoint of inhibition, the IC50, lay at 8.88 nM.

For `COc1nccc(C(=O)N2CCc3c(nn(C)c3-c3cc(F)cc(C(F)F)c3)[C@@H]2C)c1C` [Example 609, [(7S)-3-[3-(Difluoromethyl)-5-fluoro-phenyl]-2,7-dimethyl-5,7-dihydro-4H-pyrazolo[3,4-c]pyridin-6-yl]-(2-methoxy-3-methyl-4-pyridyl)methanone], the IC50 stood at 22.7 nM.

As for `C[C@H]1c2nn(C)c(-c3ccc(Cl)c(Cl)c3)c2CCN1C(=O)c1ccc2ncccc2c1` [Example 507, [(7S)-3-(3,4-Dichlorophenyl)-2,7-dimethyl-5,7-dihydro-4H-pyrazolo[3,4-c]pyridin-6-yl]-(6-quinolyl)methanone], the IC50 was found to be 15.2 nM.

For the molecule `C[C@H]1c2nn(C)c(-c3cc(F)c(F)c(F)c3)c2CCN1C(=O)c1cn(-c2ccccc2)cn1` [Example 601, [(7S)-2,7-Dimethyl-3-(3,4,5-trifluorophenyl)-5,7-dihydro-4H-pyrazolo[3,4-c]pyridin-6-yl]-(1-phenylimidazol-4-yl)methanone], half-maximal inhibition (IC50) required 252 nM.

In turn, `C[C@H]1c2nn(C)c(-c3cc(F)c(F)c(F)c3)c2CCN1C(=O)c1ccnc2c1OCCO2` [Example 569, 2,3-Dihydro-[1,4]dioxino[2,3-b]pyridin-8-yl-[(7S)-2,7-dimethyl-3-(3,4,5-trifluorophenyl)-5,7-dihydro-4H-pyrazolo[3,4-c]pyridin-6-yl]methanone] showed an IC50 of 28.7 nM.

`C[C@H]1c2nn(C)c(-c3ccccc3C(F)(F)F)c2CCN1C(=O)c1ccc2ncccc2c1` [Example 493, [(7S)-2,7-Dimethyl-3-[2-(trifluoromethyl)phenyl]-5,7-dihydro-4H-pyrazolo[3,4-c]pyridin-6-yl]-(6-quinolyl)methanone] yielded an IC50 of 2360 nM.

`COc1ccnc(C(=O)N2CCc3c(nn(C)c3-c3cc(F)cc(OC(F)F)c3)[C@@H]2C)c1Cl` [Example 612, (3-Chloro-4-methoxy-2-pyridyl)-[(7S)-3-[3-(difluoromethoxy)-5-fluoro-phenyl]-2,7-dimethyl-5,7-dihydro-4H-pyrazolo[3,4-c]pyridin-6-yl]methanone] gave an IC50 of 29.8 nM.

The same experiment, now with this note: 300 nM [Glycerol-1,3-3H]-oleyl glycerol, one hour incubation.
On to `C[C@H]1c2nn(C)c(-c3ccc(C(F)(F)F)o3)c2CCN1C(=O)c1ccc2nccnc2c1` [Example 247, (S)-(2,7-Dimethyl-3-(5-(trifluoromethyl)furan-2-yl)-2,4,5,7-tetrahydro-6H-pyrazolo[3,4-c]pyridin-6-yl)(quinoxalin-6-yl)methanone], for which half-maximal inhibition (IC50) required 186 nM.

For the molecule `Cn1nc2c(c1-c1ccccc1)CCN(C(=O)c1csc3ccccc13)C2` [Example 40, Benzo[b]thiophen-3-yl(2-methyl-3-phenyl-2,4,5,7-tetrahydro-6H-pyrazolo[3,4-c]pyridin-6-yl)methanone], it took 141 nM to reach half-maximal inhibition (IC50).

Molecule `C[C@H]1c2nn(C)c(-c3cc(F)cc(F)c3)c2CCN1C(=O)c1cccc2c1ccn2CCF` [Example 150, (S)-(3-(3,5-Difluorophenyl)-2,7-dimethyl-2,4,5,7-tetrahydro-6H-pyrazolo[3,4-c]pyridin-6-yl)(1-(2-fluoroethyl)-1H-indol-4-yl)methanone] returned an IC50 of 0.67 nM.

For `Cn1nc2c(c1-c1ccccc1)CCN(C(=O)c1n[nH]c3c(Cl)cccc13)C2` [Example 69, (7-Chloro-1H-indazol-3-yl)(2-methyl-3-phenyl-2,4,5,7-tetrahydro-6H-pyrazolo[3,4-c]pyridin-6-yl)methanone], the IC50 came to 662 nM.

`Cn1nc2c(c1-c1ccccc1)CCN(C(=O)c1cncc3ccccc13)C2` [Example 87, Isoquinolin-4-yl(2-methyl-3-phenyl-2,4,5,7-tetrahydro-6H-pyrazolo[3,4-c]pyridin-6-yl)methanone]: it took 39.8 nM to reach half-maximal inhibition (IC50).

In the case of `C[C@H]1c2nn(C)c(-c3cc(F)c(F)c(F)c3)c2CCN1C(=O)c1nn(C)c2ncccc12` [Example 230, (S)-(2,7-Dimethyl-3-(3,4,5-trifluorophenyl)-2,4,5,7-tetrahydro-6H-pyrazolo[3,4-c]pyridin-6-yl)(1-methyl-1H-pyrazolo[3,4-b]pyridin-3-yl)methanone], the IC50 was 23 nM.

`C[C@H]1c2nn(C)c(-c3cc(F)c(F)c(F)c3)c2CCN1C(=O)c1ccnc2c(F)cccc12` [Example 238, (S)-(2,7-Dimethyl-3-(3,4,5-trifluorophenyl)-2,4,5,7-tetrahydro-6H-pyrazolo[3,4-c]pyridin-6-yl)(8-fluoroquinolin-4-yl)methanone] came in with an IC50 of 2.69 nM.

For `C[C@H]1c2nn(C)c(-c3cc(F)c(F)c(F)c3)c2CCN1C(=O)c1cc2cccnc2n1C` [Example 222, (S)-(2,7-Dimethyl-3-(3,4,5-trifluorophenyl)-2,4,5,7-tetrahydro-6H-pyrazolo[3,4-c]pyridin-6-yl)(1-methyl-1H-pyrrolo[2,3-b]pyridin-2-yl)methanone], the IC50 came to 64.7 nM.

With `C[C@H]1c2nn(C)c(-c3cc(F)c(F)c(F)c3)c2CCN1C(=O)c1cc(-n2nccn2)ccc1F` [Example 285, [(7S)-2,7-Dimethyl-3-(3,4,5-trifluorophenyl)-5,7-dihydro-4H-pyrazolo[3,4-c]pyridin-6-yl]-[2-fluoro-5-(triazol-2-yl)phenyl]methanone], the midpoint of inhibition, the IC50, lay at 18.6 nM.

`C[C@H]1c2nn(C)c(-c3cc(F)c(F)c(F)c3)c2CCN1C(=O)c1cccc(-c2cn[nH]c2)c1` [Example 272, [(7S)-2,7-Dimethyl-3-(3,4,5-trifluorophenyl)-5,7-dihydro-4H-pyrazolo[3,4-c]pyridin-6-yl]-[3-(1H-pyrazol-4-yl)phenyl]methanone]: half-maximal inhibition (IC50) was put at 14.6 nM.

`C[C@H]1c2nn(C)c(-c3cc(F)c(F)c(F)c3)c2CCN1C(=O)c1cccc(-n2nccn2)c1` [Example 283, [(7S)-2,7-Dimethyl-3-(3,4,5-trifluorophenyl)-5,7-dihydro-4H-pyrazolo[3,4-c]pyridin-6-yl]-[3-(triazol-2-yl)phenyl]methanone]: the IC50 came out at 19.1 nM.

Turning to `COCc1cncc(C(=O)N2CCc3c(nn(C)c3-c3cc(F)c(F)c(F)c3)[C@@H]2C)c1` [Example 304, [(7S)-2,7-Dimethyl-3-(3,4,5-trifluorophenyl)-5,7-dihydro-4H-pyrazolo[3,4-c]pyridin-6-yl]-[5-(methoxymethyl)-3-pyridyl]methanone], the half-inhibitory concentration (IC50) is 578 nM.

In turn, `Cn1nc2c(c1-c1ccccc1)CCN(C(=O)c1coc3ccccc13)C2` [Example 36, Benzofuran-3-yl(2-methyl-3-phenyl-2,4,5,7-tetrahydro-6H-pyrazolo[3,4-c]pyridin-6-yl)methanone] registered an IC50 of 750 nM.
